Source: patent publication US11021470B2, “2-substituted quinazoline compounds comprising a substituted heterocyclic group and methods of use thereof” (Araxes Pharma LLC, priority 2015, dated 2021)

Molecular target: T1, KRAS G12C 1-169, his-tagged protein, GDP-loaded (Homo sapiens, UniProt P01116, G12C)
T1 construct: KRAS G12C 1-169, his-tagged protein, GDP-loaded
Test: KRAS G12C covalent binding (% modification) by mass spectrometry, ten or three minute incubation
Conditions: covalent binding to KRAS G12C after a ten minute incubation period
Experimental: Test compounds were prepared as 10 mM stock solutions in DMSO (Fisher cat #BP-231-100). KRAS G12C 1-169, his-tagged protein, GDP-loaded was diluted to […] in buffer (20 mM Hepes, 150 mM NaCl, 1 mM MgCl2). Compounds were tested for activity as follows:
Compounds were diluted to 50× final test concentration in DMSO in 96-well storage plates. Compound stock solutions were vortexed before use and observed carefully for any sign of precipitation. Dilutions were as follow: • For 100 μM final compound concentration, compounds were diluted to 5000 μM (5 μl 10 mM compound stock+5 μl DMSO and mixed well by pipetting. • For 30 μM final compound concentration, compounds were diluted to 1500 μM (3 μl 10 mM compound stock+17 μl DMSO) and mixed well by pipetting. • For 10 μM final compound concentration, compounds were diluted to 500 μM (2 μl 10 mM compound stock+38 μl DMSO) and mixed well by pipetting. 49 μl of the stock protein solution was added to each well of a 96-well PCR plate (Fisher cat #1423027). 1 μl of the diluted 50× compounds were added to appropriate wells in the PCR plate using 12-channel pipettor. Reactions were mixed carefully and thoroughly by pipetting up/down with a 200 μl multi-channel pipettor. […] 5 μl of 2% formic acid (Fisher cat #A117) in DI H2O was then added to each well followed by mixing with a pipette. The plate was then resealed with aluminum seal and stored on dry ice until analyzed as described below.
The above described assays were analyzed by mass spectrometry according to one of the following two procedures:
The MS instrument is set to positive polarity, 2 GHz resolution, and low mass (1700) mode and allowed to equilibrate for 30 minutes. The instrument is then calibrated, switched to acquisition mode and the appropriate method loaded.
After another 30 minute equilibration time, a blank batch (i.e., buffer) is run to ensure equipment is operating properly. The samples are thawed at 37° C. for 10 minutes, briefly centrifuged, and transfer to the bench top. Wells A1 and H12 are spiked with 1 μL 500 μM internal standard peptide, and the plates centrifuged at 2000×g for 5 minutes. The method is then run and masses of each individual well recorded.
The masses (for which integration data is desired) for each well are pasted into the platemap and exported from the analysis. Masses for the internal standards are exported as well. The data at 50 ppm is extracted for the +19 charge state, and identity of well A1 is assigned using the internal standard spike and integrated. Peak data is exported as a TOF list and the above steps are repeated individually, for the +20, 21, 22, 23, 24, and 25 charge states.
The masses and peak intensities of KRAS G12C protein species were measured using a Dionex RSLCnano system (Thermo Scientific) connected to a Q Exactive Plus mass spectrometer (Thermo Scientific).
[…] of sample was each loaded onto a Aeris™ 3.6 μm WIDEPORE C4 200 Å, LC Column 50×2.1 mm column maintained at 40° C. at a flow rate of 600 μl min^−1 with […] (0.1% formic acid in acetonitrile). The liquid chromatography conditions were 20% solvent B for 1 min, 20% to 60% solvent B for 1.5 min, 60% to 90% solvent for 0.5 min, 90% solvent B for 0.2 min, 90% to 20% solvent B for 0.2 min, and then equilibrated for 1.6 min before the following sample injection. The flow rate was maintained at 600 μl min^−1 throughout the sample analysis.
The mass spectrometer was operated in profile mode at a resolution of 17500, 5 microscans, using 50 msec max injection time and an AGC target of 1e6, and a full mass range from 800-1850 m/z was recorded. The HCD trapping gas was optimized for maximum sensitivity for intact proteins. The ionization method was electrospray ionization, which used a spray voltage of 4 kV, sheath gas flow set to 50 au, auxiliary gas flow set to 10 au and sweep gas flow set to 1 au. […]

Structure (SMILES) | Binding %
C=CC(=O)N1C[C@H](C)N(c2nc(OCCN(CC)CC)nc3c(F)c(-c4c(O)cccc4F)c(Cl)cc23)C[C@H]1C [Compound 48, 1-((2R,5S)-4-(6-chloro-2-(2-(diethylamino)ethoxy)-8-fluoro-7-(2-fluoro-6-hydroxyphenyl)quinazolin-4-yl)-2,5-dimethylpiperazin-1-yl)prop-2-en-1-one] | ++ (++ indicates binding activity from 50 to 90%)
C=CC(=O)N1C[C@H](C)N(c2nc(N3CC(N(C)C)C3)nc3c(F)c(-c4c(O)cccc4F)c(Cl)cc23)C[C@H]1C [Compound 24, 1-((2R,5S)-4-(6-chloro-2-(3-(dimethylamino)azetidin-1-yl)-8-fluoro-7-(2-fluoro-6-hydroxyphenyl)quinazolin-4-yl)-2,5-dimethylpiperazin-1-yl)prop-2-en-1-one] | ++ (++ indicates binding activity from 50 to 90%)
C=CC(=O)N1C[C@H](C)N(c2nc(N3CC(N(C)C)C3)nc3c(F)c(-c4c(C)ccc5[nH]ncc45)c(Cl)cc23)C[C@H]1C [Compound 54, 1-((2R,5S)-4-(6-chloro-2-(3-(dimethylamino)azetidin-1-yl)-8-fluoro-7-(5-methyl-1H-indazol-4-yl)quinazolin-4-yl)-2,5-dimethylpiperazin-1-yl)prop-2-en-1-one] | +++ (+++ indicates binding activity greater than 90%)

Same assay, conditions: covalent binding to KRAS G12C, % modification after a three minute incubation period

Structure (SMILES) | Binding %
C=CC(=O)N1C[C@H](C)N(c2nc(N3CC(N(C)C)C3)nc3c(F)c(-c4c(O)cccc4F)c(C(F)(F)F)cc23)C[C@H]1C (atropisomer, axis not shown) [Compound 270, 1-((2R,5S)-4-(2-(3-(dimethylamino)azetidin-1-yl)-8-fluoro-7-((R)-2-fluoro-6-hydroxyphenyl)-6-(trifluoromethyl)quinazolin-4-yl)-2,5-dimethylpiperazin-1-yl)prop-2-en-1-one] | +++ (+++ indicates binding activity greater than 90%)
C=CC(=O)N1C[C@H](C)N(c2nc(N3CC(N(C)C)C3)nc3c(F)c(-c4c(F)ccc5cn[nH]c45)c(Cl)cc23)C[C@H]1C [Compound 261, 1-((2R,5S)-4-(6-chloro-2-(3-(dimethylamino)azetidin-1-yl)-8-fluoro-7-(6-fluoro-1H-indazol-7-yl)quinazolin-4-yl)-2,5-dimethylpiperazin-1-yl)prop-2-en-1-one] | +++ (+++ indicates binding activity greater than 90%)
C=CC(=O)N1C[C@H](C)N(c2nc(N3CC(N(C)C)C3)nc3c(F)c(-c4c(O)cccc4F)c(C(F)(F)F)cc23)C[C@H]1C (atropisomer, axis not shown) [Compound 269, 1-((2R,5S)-4-(2-(3-(dimethylamino)azetidin-1-yl)-8-fluoro-7-((S)-2-fluoro-6-hydroxyphenyl)-6-(trifluoromethyl)quinazolin-4-yl)-2,5-dimethylpiperazin-1-yl)prop-2-en-1-one] | + (+ indicates binding activity greater than 0% and up to 50%)
C=CC(=O)N1C[C@H](C)N(c2nc(OCCc3nccc(C)n3)nc3c(F)c(-c4c(O)cccc4F)c(Cl)cc23)C[C@H]1C (atropisomer, axis not shown) [Compound 257, 1-((2R,5S)-4-(6-chloro-8-fluoro-7-((S)-2-fluoro-6-hydroxyphenyl)-2-(2-(4-methylpyrimidin-2-yl)ethoxy)quinazolin-4-yl)-2,5-dimethylpiperazin-1-yl)prop-2-en-1-one] | +++ (+++ indicates binding activity greater than 90%)
C=CC(=O)N1C[C@H](C)N(c2nc(OCCn3ccc4cccnc43)nc3c(F)c(-c4c(O)cccc4F)c(Cl)cc23)C[C@H]1C [Compound 263, 1-((2R,5S)-4-(2-(2-(1H-pyrrolo[2,3-b]pyridin-1-yl)ethoxy)-6-chloro-8-fluoro-7-(2-fluoro-6-hydroxyphenyl)quinazolin-4-yl)-2,5-dimethylpiperazin-1-yl)prop-2-en-1-one] | + (+ indicates binding activity greater than 0% and up to 50%)
C=CC(=O)N1C[C@H](C)N(c2nc(N3CC(N(C)C)C3)nc3c(F)c(-c4c(C)ccc5[nH]ccc45)c(Cl)cc23)C[C@H]1C [Compound 266, 1-((2R,5S)-4-(6-chloro-2-(3-(dimethylamino)azetidin-1-yl)-8-fluoro-7-(5-methyl-1H-indol-4-yl)quinazolin-4-yl)-2,5-dimethylpiperazin-1-yl)prop-2-en-1-one] | +++ (+++ indicates binding activity greater than 90%)
C=CC(=O)N1C[C@H](C)N(c2nc(OCCn3ccccc3=O)nc3c(F)c(-c4c(O)cccc4F)c(Cl)cc23)C[C@H]1C (atropisomer, axis not shown) [Compound 265, 1-(2-(4-((2S,5R)-4-acryloyl-2,5-dimethylpiperazin-1-yl)-6-chloro-8-fluoro-7-((S)-2-fluoro-6-hydroxyphenyl)quinazolin-2-yloxy)ethyl)pyridin-2(1H)-one] | +++ (+++ indicates binding activity greater than 90%)
C=CC(=O)N1C[C@H](C)N(c2nc(N3CC(N(C)C)C3)nc3c(F)c(-c4c(C)ccc5[nH]nc(C#N)c45)c(Cl)cc23)C[C@H]1C [Compound 292, 4-(4-((2S,5R)-4-acryloyl-2,5-dimethylpiperazin-1-yl)-6-chloro-2-(3-(dimethylamino)azetidin-1-yl)-8-fluoroquinazolin-7-yl)-5-methyl-1H-indazole-3-carbonitrile] | ++ (++ indicates binding activity from 50 to 90%)
C=CC(=O)N1C[C@H](C)N(c2nc(OCCn3ccnc3C)nc3c(F)c(-c4c(O)cccc4F)c(Cl)cc23)C[C@H]1C (atropisomer, axis not shown) [Compound 264, 1-((2R,5S)-4-(6-chloro-8-fluoro-7-((S)-2-fluoro-6-hydroxyphenyl)-2-(2-(2-methyl-1H-imidazol-1-yl)ethoxy)quinazolin-4-yl)-2,5-dimethylpiperazin-1-yl)prop-2-en-1-one] | +++ (+++ indicates binding activity greater than 90%)
C=CC(=O)N1C[C@H](C)N(c2nc(N3CC(N(C)C)C3)nc3c(F)c(-c4cc(O)cc5ccccc45)c(C(F)(F)F)cc23)C[C@H]1C (atropisomer, axis not shown) [Compound 255, 1-((2R,5S)-4-(2-(3-(dimethylamino)azetidin-1-yl)-8-fluoro-7-((R)-3-hydroxynaphthalen-1-yl)-6-(trifluoromethyl)quinazolin-4-yl)-2,5-dimethylpiperazin-1-yl)prop-2-en-1-one] | +++ (+++ indicates binding activity greater than 90%)
C=CC(=O)N1C[C@H](C)N(c2nc(N3CC(N(C)C)C3)nc3c(F)c(-c4c(C)[nH]c5ccccc45)c(Cl)cc23)C[C@H]1C [Compound 287, 1-((2R,5S)-4-(6-chloro-2-(3-(dimethylamino)azetidin-1-yl)-8-fluoro-7-(2-methyl-1H-indol-3-yl)quinazolin-4-yl)-2,5-dimethylpiperazin-1-yl)prop-2-en-1-one] | + (+ indicates binding activity greater than 0% and up to 50%)
C=CC(=O)N1C[C@H](C)N(c2nc(OCCO)nc3c(F)c(-c4c(O)cccc4F)c(Cl)cc23)C[C@H]1C [Compound 253, 1-((2R,5S)-4-(6-chloro-8-fluoro-7-(2-fluoro-6-hydroxyphenyl)-2-(2-hydroxyethoxy)quinazolin-4-yl)-2,5-dimethylpiperazin-1-yl)prop-2-en-1-one] | ++ (++ indicates binding activity from 50 to 90%)
